Earlier results, collected in patent US20160045465A1, “THERAPEUTIC FORMULATIONS FOR THE TREATMENT OF COLD AND FLU-LIKE SYMPTOMS” (Kingsway Pharmaceuticals Inc., priority 2007, published 2016).
Structures can show the parent of a compound that is named as a salt. Where two headings read alike, the source gives them in different places.

Columns and labels:
[1] = not given; remark: listed apart in the source
[2] = in vivo
[3] = children, ibuprofen suspension, oral
[4] = oral, 30 mg as tablets or oral solution

Compound: CC(=O)Nc1ccc(O)cc1 [acetaminophen, N-(4-hydroxyphenyl)ethanamide]
- fraction in the body undergoing conjugation (glucuronic acid, sulphuric acid) (in vivo): 80-85%
- plasma half-life (in vivo): 1.2 to 3.0 h
- time to peak plasma concentrations (oral administration of immediate release acetaminophen preparations): 0.167 to 1 h

Compound: CC(C)Cc1ccc(C(C)C(=O)O)cc1 (centres unmarked) [ibuprofen, 2-[4-(2-methylpropyl)phenyl]propanoic acid]
- onset of antipyretic effect (fever; [3]): ≤ 1 h
- time of peak antipyretic effect (fever; [3]): 2 to 4 h
- duration of antipyretic effect (fever; single ibuprofen suspension doses of 10-mg/kg): up to 8 hours
- time to reach maximal plasma concentration (conventional tablets): approximately 120 minutes
- time until excretion is essentially complete (following oral administration): ≤ 24 h
- fraction of an oral dose absorbed from the GI tract (in vivo, po): Approximately 80%
- reduction of peak plasma concentrations when administered with food (with food): 30-50%
- change of time to achieve peak plasma concentrations when administered with food (with food, given as 'reduced by'): 30 to 60 min

Compound: CNC[C@H](O)c1cccc(O)c1 [phenylephrine hydrochloride]
- pKa [1]: 8.86

Compound: CNC[C@H](O)c1cccc(O)c1 [phenylephrine]
- elimination half-life (in vivo): 2 to 3 h
- bioavailability following oral administration (oral): approximately 38%
- time of peak serum concentrations (oral): 0.75 to 2.0 h
- duration of nasal decongestion (nasal congestion; oral phenylephrine): 2 to 4 h
- onset of nasal decongestion (nasal congestion; oral phenylephrine): 15 to 20 min
- efficacy compared with pseudoephedrine [2]: less efficacious than pseudoephedrine

Compound: CN[C@@H](C)[C@@H](O)c1ccccc1 [pseudoephedrine hydrochloride]
- duration of nasal decongestion (nasal congestion; 120 mg in extended-release capsules): up to 12 hours
- duration of nasal decongestion (nasal congestion; oral administration of 60 mg): 8 h
- duration of nasal decongestion (nasal congestion; [4]): 4 to 6 h
- onset of nasal decongestion (nasal congestion; [4]): ≤ 30 min

Compound: CN[C@@H](C)[C@@H](O)c1ccccc1 [pseudoephedrine]
- time to peak plasma concentrations (60-mg dose as an oral solution): 1.39 to 2.0 h
- time to peak plasma concentrations (120-mg dose as an oral solution): 1.84 to 1.97 h
- time to peak plasma concentrations (extended-release products): 3.8 to 6.1 h
- fraction of a dose excreted unchanged in urine (in vivo): 55-96%
- elimination half-life (urinary pH 5): 3 to 6 h
- elimination half-life (urinary pH 5.8): 5 to 8 h
- elimination half-life (urinary pH 8): 9 to 16 h
